This note sets out measurements from US20230382926A1, “COMPOUNDS AND USES THEREOF” (The University of The West Indies, priority 2022, published 2023).

SMILES strings stand for the structures.

The term MIC denotes the lowest concentration found to suppress growth. The low end stands for inhibition by little substance, the high end for a need for much substance.

One test relates to K. pneumoniae. In words: Rescue concentration of substituted phenyl azaindole derivatives. It counts as cell-based. To be noted: for Rescue concentration, K. pneumoniae Ciprofloxacin (1 μg/mL): Ciprofloxacin fixed at 1 μg/mL; for Rescue concentration, K. pneumoniae Imipenem (1 μg/mL): Imipenem fixed at 1 μg/mL. The procedure: (§1) The antibiotic adjuvant activity of the SPazaBIMs were evaluated in combination with representative antibiotics (representing 13 antibiotic classes) against the 19 pathogens strains listed in Table 3. To assess the adjuvant properties of the SP-azaBIM molecules, a modified checkerboard minimum inhibitory concentration assay was used. A fixed concentration of the respective antibiotic (susceptible breakpoint concentration) was mixed with a twofold dilution series of the test SP-azaBIM (FIG. 1). This was to determine the concentration of SP-azaBIM needed potentiate the antibiotic at a clinically susceptible breakpoint concentration. Antibiotic susceptible breakpoint concentrations for the respective bacteria were determined using Clinical Laboratory Standards Institute (CLSI) criteria M100 ED31.
(§2) In this study, only those antibiotics to which the bacterial was classed as resistant were included in the adjuvant assays. In this assay we recorded the rescue concentration of the SP-BIM for a respective antibiotic. The rescue concentration was defined as the concentration of the adjuvant that reduces the minimum inhibitory concentration (MIC) of an antibiotic to the susceptibility breakpoint.
(§3) Immediately prior to testing, the respective antibiotic and SP-azaBIM was dissolved in sterile deionised water at 20× the required test concentration. Each microtiter well was then inoculated with 180 μl of bacterial inoculum of 10^6 CFU/ml in ca-MHB, and 10 μl each if the antibiotic and SP-azaBIM was added to the plates. These plates were then incubated at 35° C. for 24 h under aerobic conditions. A similar method was followed for the fastidious pathogens except that they were cultured in ca-MHB with 5% sheep blood and 5% CO2.
(§4) Bacterial growth was visually inspected after the incubation period and the rescue concentration of the test SP-azaBIM was determined as the lowest concentration of the compound needed to reduce bacterial growth by 99.99% at the susceptible breakpoint concentration of the antibiotic. For example, CLSI states that Pseudomonas aeruginosa is susceptible to the Imipenem if the MIC is ≤2 μg mL^−1. If the bacteria can tolerate this concentration in vitro, then the bacteria has an intermediate or absolute resistance toward that antibiotic. The goal was to determine the concentration of SP-azaBIM needed to cause P. aeruginosa death at 2 μg mL^−1 of Imipenem therefore restoring susceptibility of the bacteria to toward the antibiotic.
(§5) Phenyl azaindole compounds are also tested for their adjuvant activities and the method is shown in Example 39.

A further test has as its system MRSA. The description is as above. The test is classed as cell-based, Staphylococcus aureus. To be noted: Amoxicillin fixed at 2 μg/mL. The procedure: as §1, §2, §3, §4, §5
Test [1] concerns Multidrug resistant Pseudomonas aeruginosa. In words: Broth microdilution minimum inhibitory concentration. The test is classed as cell-based. To be noted: compound alone. The procedure:
(§6) Antibacterial activity of the synthesized compounds was determined following guidelines established by the Clinical and Laboratory Standards Institute M07-A10 (CLSI 2015), following the broth microdilution method. Briefly, the test articles were dissolved in 100% DMSO, diluted by 2-fold serial titrations in the same vehicle (100% DMSO), for a total of 11 concentrations. A 4 μL aliquot of each dilution was then added to 196 μL of broth medium seeded with the bacterial suspension in wells of a 96 well plate (bacterial count: 2×10^5 to 8×10^5 colony forming units/mL final). The highest test substance concentration was 1028 μg/mL, and the final vehicle concentration was 2 percent. Following incubation, the test plate was visually examined, and each well was scored for growth or complete inhibition of growth. The minimum inhibitory concentration was determined as the lowest concentration were no growth of the bacterial was observed. Each test article was assayed in duplicate.
In general terms: Dilution methods test growth across graded concentrations, often in twofold steps.

Test [2] concerns Methicillin resistant Staphylococcus aureus. Described as above. It counts as cell-based. To be noted: compound alone. The procedure: as §6
Test [3] has as its system Carbapenem resistant Acinetobacter baumannii. The test is described as above. To be noted: compound alone. It counts as cell-based. The protocol:
as §6

Test [4] concerns Carbapenem resistant Klebsiella pneumoniae. The test is described as above. It counts as cell-based. To be noted: compound alone. The protocol:
as §6

Test [5] relates to Vancomycin resistant Enterococcus faecalis. The description is as above. To be noted: compound alone. The test is classed as cell-based. The procedure: as §6
In the next test the test system is P. aeruginosa. Kind of test: Rescue concentration of substituted phenyl azaindole derivatives. It counts as cell-based. To be noted: Imipenem fixed at 1 μg/mL. The procedure: as §1, §2, §3
Bacterial growth was visually inspected after the incubation period and the rescue concentration of the test SP-azaBIM was determined as the lowest concentration of the compound needed to reduce bacterial growth by 99.99% at the susceptible breakpoint concentration of the antibiotic. […] If the bacteria can tolerate this concentration in vitro, then the bacteria has an intermediate or absolute resistance toward that antibiotic. […]
as §5

On to `COc1ccc(C(O)c2c[nH]c3cnc(Br)cc23)cc1OC` (stereo not drawn) [3,4 Di methoxy 5Br-6aza-OH, (5-bromo-1H-pyrrolo[2,3-c]pyridin-3-yl)(3,4-dimethoxyphenyl)methanol], for which, in the test on K. pneumoniae, the “Rescue concentration, K. pneumoniae Ciprofloxacin (1 μg/mL)” value was below 256 µg/mL. Further, the “Rescue concentration, K. pneumoniae Imipenem (1 μg/mL)” value in the test on K. pneumoniae was below 256 µg/mL. Further, in the test with MRSA, the “Rescue concentration, MRSA Amoxicillin (2 μg/mL)” value (“Rescue concentration … (2 μg/mL)” for short) is 2 µg/mL. The minimal inhibitory concentration (MIC) in test [1], in test [2], in test [3], in test [4] and in test [5] was below 1020 µg/mL each time. The “Rescue concentration, P. aeruginosa Imipenem (1 μg/mL)” value with P. aeruginosa was below 256 µg/mL.
Take `O=[N+]([O-])c1cccc(C(O)c2c[nH]c3c(Cl)nc(Br)cc23)c1` (stereo not drawn) [3NO2-5Br-7Cl-6aza-OH, (5-bromo-7-chloro-1H-pyrrolo[2,3-c]pyridin-3-yl)(3-nitrophenyl)methanol]: the “Rescue concentration, K. pneumoniae Ciprofloxacin (1 μg/mL)” value with K. pneumoniae is below 256 µg/mL. In addition, in the test on K. pneumoniae, the “Rescue concentration, K. pneumoniae Imipenem (1 μg/mL)” value was below 256 µg/mL. Also, the “Rescue concentration … (2 μg/mL)” value in the test with MRSA came to 16 µg/mL. For the same compound, the MIC in test [1], in test [2], in test [3], in test [4] and in test [5] was below 1020 µg/mL each time. Also, in the test on P. aeruginosa, the “Rescue concentration, P. aeruginosa Imipenem (1 μg/mL)” value was below 256 µg/mL.
Regarding `O=[N+]([O-])c1cccc(C(O)c2c[nH]c3cnc(Cl)cc23)c1` (stereo not drawn) [3NO2-5Cl-6aza-OH, (5-chloro-1H-pyrrolo[2,3-c]pyridin-3-yl)(3-nitrophenyl)methanol], the “Rescue concentration, K. pneumoniae Ciprofloxacin (1 μg/mL)” value with K. pneumoniae was below 256 µg/mL. Moreover, the “Rescue concentration, K. pneumoniae Imipenem (1 μg/mL)” value in the test on K. pneumoniae is below 256 µg/mL. In addition, in the test on MRSA, the “Rescue concentration … (2 μg/mL)” value was below 256 µg/mL. Also, the minimum inhibitory concentration (MIC) in test [1], in test [2], in test [3], in test [4] and in test [5] was below 1020 µg/mL each time. Also, the “Rescue concentration, P. aeruginosa Imipenem (1 μg/mL)” value in the test with P. aeruginosa was below 256 µg/mL.
As to `O=[N+]([O-])c1cccc(C(O)c2c[nH]c3ncc(Cl)cc23)c1` (stereo not drawn) [3NO2-5Cl-7aza-OH, (5-chloro-1H-pyrrolo[2,3-b]pyridin-3-yl)(3-nitrophenyl)methanol], the “Rescue concentration, K. pneumoniae Ciprofloxacin (1 μg/mL)” value in the test with K. pneumoniae was below 256 µg/mL. In addition, the “Rescue concentration, K. pneumoniae Imipenem (1 μg/mL)” value with K. pneumoniae was below 256 µg/mL. Besides, the “Rescue concentration … (2 μg/mL)” value with MRSA is below 256 µg/mL. For the same compound, the MIC in test [1], in test [2], in test [3], in test [4] and in test [5] was below 1020 µg/mL each time. Further, the “Rescue concentration, P. aeruginosa Imipenem (1 μg/mL)” value in the test on P. aeruginosa was below 256 µg/mL.
In the case of `O=[N+]([O-])c1cccc(C(O)c2c[nH]c3ncc(F)cc23)c1` (stereo not drawn) [3NO2-5Fl-7aza-OH, (5-fluoro-1H-pyrrolo[2,3-b]pyridin-3-yl)(3-nitrophenyl)methanol], the “Rescue concentration, K. pneumoniae Ciprofloxacin (1 μg/mL)” value in the test on K. pneumoniae is below 256 µg/mL. Besides, the “Rescue concentration, K. pneumoniae Imipenem (1 μg/mL)” value in the test with K. pneumoniae was below 256 µg/mL. In addition, the “Rescue concentration … (2 μg/mL)” value in the test on MRSA worked out at 128 µg/mL. In addition, the MIC in test [1], in test [2], in test [3], in test [4] and in test [5] was below 1020 µg/mL in each case. Further, in the test with P. aeruginosa, the “Rescue concentration, P. aeruginosa Imipenem (1 μg/mL)” value is below 256 µg/mL.
Take `O=[N+]([O-])c1cccc(C(O)c2c[nH]c3c(Cl)nccc23)c1` (stereo not drawn) [3NO2-7Cl-6aza, (7-chloro-1H-pyrrolo[2,3-c]pyridin-3-yl)(3-nitrophenyl)methanol]: the “Rescue concentration, K. pneumoniae Ciprofloxacin (1 μg/mL)” value in the test with K. pneumoniae was below 256 µg/mL. Further, the “Rescue concentration, K. pneumoniae Imipenem (1 μg/mL)” value in the test with K. pneumoniae is below 256 µg/mL. The “Rescue concentration … (2 μg/mL)” value in the test on MRSA was determined as 32 µg/mL. In addition, the MIC in test [1], in test [2], in test [3], in test [4] and in test [5] was below 1020 µg/mL each time. Moreover, the “Rescue concentration, P. aeruginosa Imipenem (1 μg/mL)” value with P. aeruginosa is below 256 µg/mL.
Regarding `O=[N+]([O-])c1cccc(C(c2c[nH]c3cnccc23)c2c[nH]c3cnccc23)c1` [3NO2-Bis-6aza, 3,3′-((3-nitrophenyl)methylene)bis(1H-pyrrolo[2,3-c]pyridine)], the “Rescue concentration, K. pneumoniae Ciprofloxacin (1 μg/mL)” value in the test with K. pneumoniae is below 256 µg/mL. For the same compound, the “Rescue concentration, K. pneumoniae Imipenem (1 μg/mL)” value with K. pneumoniae was below 256 µg/mL. Further, in the test on MRSA, the “Rescue concentration … (2 μg/mL)” value is below 256 µg/mL. For the same compound, the minimum inhibitory concentration (MIC) in test [1], in test [2], in test [3], in test [4] and in test [5] was below 1020 µg/mL throughout. Further, the “Rescue concentration, P. aeruginosa Imipenem (1 μg/mL)” value with P. aeruginosa was below 256 µg/mL.
`OC(c1ccc(Br)cc1)c1c[nH]c2cnc(Br)cc12` (stereo not drawn) [4Br-5Br-6aza-OH, (5-bromo-1H-pyrrolo[2,3-c]pyridin-3-yl)(4-bromophenyl)methanol]: in the test on K. pneumoniae, the “Rescue concentration, K. pneumoniae Ciprofloxacin (1 μg/mL)” value is below 256 µg/mL. Further, in the test with K. pneumoniae, the “Rescue concentration, K. pneumoniae Imipenem (1 μg/mL)” value was below 256 µg/mL. Further, the “Rescue concentration … (2 μg/mL)” value in the test on MRSA stood at 4 µg/mL. Further, the minimal inhibitory concentration (MIC) in test [1], in test [2], in test [3], in test [4] and in test [5] was below 1020 µg/mL throughout. Moreover, the “Rescue concentration, P. aeruginosa Imipenem (1 μg/mL)” value in the test with P. aeruginosa was below 256 µg/mL.
For `OC(c1ccc(Br)cc1)c1c[nH]c2cnc(Cl)cc12` (stereo not drawn) [4Br-5Cl-6aza-OH, (4-bromophenyl)(5-chloro-1H-pyrrolo[2,3-c]pyridin-3-yl)methanol], in the test on K. pneumoniae, the “Rescue concentration, K. pneumoniae Ciprofloxacin (1 μg/mL)” value was below 256 µg/mL. Moreover, the “Rescue concentration, K. pneumoniae Imipenem (1 μg/mL)” value in the test on K. pneumoniae is below 256 µg/mL. For the same compound, the “Rescue concentration … (2 μg/mL)” value in the test on MRSA was 0.5 µg/mL. For the same compound, the MIC in test [1], in test [2], in test [3], in test [4] and in test [5] was below 1020 µg/mL in each case. The “Rescue concentration, P. aeruginosa Imipenem (1 μg/mL)” value with P. aeruginosa is below 256 µg/mL.
For `OC(c1ccc(Br)cc1)c1c[nH]c2ncc(Cl)cc12` (stereo not drawn) [4Br-5Cl-7aza-OH, (4-bromophenyl)(5-chloro-1H-pyrrolo[2,3-b]pyridin-3-yl)methanol], the “Rescue concentration, K. pneumoniae Ciprofloxacin (1 μg/mL)” value in the test with K. pneumoniae is 32 µg/mL. In the test with K. pneumoniae, the “Rescue concentration, K. pneumoniae Imipenem (1 μg/mL)” value is 32 µg/mL. For the same compound, the “Rescue concentration … (2 μg/mL)” value in the test with MRSA came to 8 µg/mL. The MIC in test [1], in test [2], in test [3], in test [4] and in test [5] was below 1020 µg/mL each time. Further, in the test with P. aeruginosa, the “Rescue concentration, P. aeruginosa Imipenem (1 μg/mL)” value stood at 256 µg/mL.
Consider `OC(c1ccc(Br)cc1)c1c[nH]c2c(Cl)nccc12` (stereo not drawn) [4Br-7Cl-6aza-OH, (4-bromophenyl)(7-chloro-1H-pyrrolo[2,3-c]pyridin-3-yl)methanol], for which, in the test with K. pneumoniae, the “Rescue concentration, K. pneumoniae Ciprofloxacin (1 μg/mL)” value was below 256 µg/mL. Further, the “Rescue concentration, K. pneumoniae Imipenem (1 μg/mL)” value in the test with K. pneumoniae is below 256 µg/mL. In addition, the “Rescue concentration … (2 μg/mL)” value in the test with MRSA came to 2 µg/mL. In addition, the minimal inhibitory concentration (MIC) in test [1], in test [2], in test [3], in test [4] and in test [5] was below 1020 µg/mL in each case. In addition, the “Rescue concentration, P. aeruginosa Imipenem (1 μg/mL)” value in the test on P. aeruginosa is below 256 µg/mL.
